Measurements taken from US20100041603A1, “Method of Promoting Wound Healing” (Corthera, Inc., priority 2008, published 2010).
“Also recorded” adds a separate entry of the source.

Tests used:
[1] = tested on: 20×6 mm incisional wounds on the back; test: Porcine skin wound study (incisional wounds, six weeks); assay type: in vivo, juvenile pigs
Description: Overview of the Animal Study. In selecting the appropriate animal for this study, a pig was selected because of the anatomical similarities between pig skin and human skin. In fact, pig wound healing has been used in numerous studies to simulate human skin (Sullivan et al., Wound Repair Regen. 9: 66-76, 2001).
Design of Study. In this study, juvenile pigs were oriented with twelve wound sites per animal—20×6 mm incisional wounds on the back—over the course of a six week study (see FIG. 2). Systemic relaxin was delivered via mini-pumps to achieve 20 ng/mL serum concentrations. Topical formulations were prepared by Dow Pharma, and consisted of propylene glycol and ethanol, which contributed to good long term stability of the therapeutic agent. Dosages consisting of placebo, 0.5 mg/mL (low dose), and 2.5 mg/mL (high dose) were prepared. The goals of the study were to assess the safety of topical relaxin on wound healing and to determine the efficacy of relaxin as a treatment for wound healing and/or scar formation. During the first week, irrigation was performed once daily. During weeks 2-3, topical formulation was applied twice daily, and during weeks […], topical formulation was applied once daily.
Design of Drug The study drug was relaxin (produced by recombinant technology). Recombinant relaxin is identical to the native human hormone H2 relaxin, produced using a recombinant single chain process. The active test article may be aseptically diluted to the desired concentration with the acetate diluent (20 mM sodium acetate, pH 5.0).
Study Procedures. Referring to FIG. 3 which depicts the back of a pig with incisions according to the experimental design described herein at the completion of six weeks, the wound in Section 3 was irrigated with relaxin construct during the first week, and subsequently treated with high dose topical relaxin formulation during weeks 2-6 as described above. Sections 4, 5, and 6 received no irrigation during week 1. Section 4 was treated with placebo. Section 5 was treated with low dose topical formulation, and Section 6 was treated with high dose topical formulation.
Cosmetic appearance of skin. Visual rankings of wound pictures were conducted by neutral observers who evaluated scabs during early wound healing (days 5-7) and scars at the end of the study (see FIG. 4). […] The results of this visual wound assessment determined that 89% of the time a relaxin treatment group was selected in the top three. Only 11% of the time, a group not treated with relaxin was selected in the top three.
A cosmetic score was also determined by a professional dermatologist at weeks 2, 4, and 6. The cosmetic score has five components: (1) color—matching with surrounding skin; (2) texture—no hardness; (3) distortion—no distortion of nearby skin; (4) contour—flush with surrounding skin; (5) global—no hypertrophy or keloid formation. During this dermatological assessment, evaluation at time 2 weeks was obscured by scabs, so the data for cosmetic scores was collected from evaluation at weeks 4 and 6 (see FIG. 5). […] In the bottom profile, the scar is visible.
Histological evaluation. A professional histopathologist evaluated the pathology of the treatments for such indications as granulation, inflammation, and necrosis. In judging granulation tissue, it is considered that early response to wound includes invasion of the site by fibroblasts, inflammatory cells, and new blood vessels. Over time, this resolves to more normal tissue as the site heals. Chronic inflammation characterized by the presence of macrophages, giant cells, lymphocytes, and PMNs indicated adverse reaction. Minor factors such as keratosis (formation of keratin layer outside the epidermis) and acanthosis (thickening of the epidermal layer) are also considered. […]

[2] = tested on: wounded sites; conditions: systemic relaxin administration in rats; cited from earlier work
[3] = tested on: 20×6 mm incisional wounds on the back; test: Porcine skin wound study (incisional wounds, six weeks); assay type: in vivo, juvenile pigs; conditions: dose range 10-960 μg/kg/day
[4] = Canine gingiva study: RLX migration and degradation after gingival injection (SELDI-TOF MS); assay type: in vivo, dog; conditions: for RLX detection in gingiva away from the site of injection: 1 hr time point; for concentration of H2 RLX detected in treated dog gingiva: site of injection
Protocol: The aim of this study was to determine the rate of RLX migration and extent of degradation after gingival injections. […] Employing a dog model, RLX was administered and tissue punch biopsies were collected at the site of injection and 0.5, 1 and 2 cm from the site of injection. Tissue was collected at several time points including 1, 2 and 4 hrs after injection. Protein was extracted from the gingival biopsies and analysed via ProteinChip technology (Surface Enhanced Laser Desorption/Ionization Time-of-Flight Mass Spectrometry, SELDI-TOF MS), which combines two well-established methods of solid phase chromatography and TOF-MS into an integrated platform. ProteinChip arrays were coated with anti-H2 RLX Ab, allowing the specific capture of RLX and associated breakdown/modified products.
Design of Drug. Gingival injections were administered (25 μg H2 RLX/100 μl, 41 μM) and tissue was collected at several positions including the site of injection and 0.5, 1 and 2 cm from the site of injection. Tissue was collected 1, 2 and 3 hrs after injection.
a) Protein Extraction and Quantitation. Frozen gingival biopsies were homogenized in extraction buffer (10 μl/mg tissue) containing 10 mM Tris-HCl, 10 mM NaCl, 0.1% TFA and protease inhibitor (complete mini, Roche). The extract was centrifuged (6000×g) for 10 min and the supernatant was collected, aliquoted and stored at −80° C. Total protein concentration was determined using the Bradford assay. Protein concentrations ranged from 1.4 mg/ml to 2.8 mg/ml, all samples were standardized to 1.4 mg/ml in extraction buffer.
b) SELDI-TOF MS analysis—Analysis of RLX treated gingiva on PG20 arrays. Anti-H2 RLX Ab ([…]/0.25 mg/ml; Genentech) or control IgG (Ciphergen Biosystems) was applied to each spot of a PS20 array which had been pre-coated with Protein G (Ciphergen Biosystems). After antibody binding, the chip was washed once with PBS/0.5% Triton X-100 for 5 min with agitation (5 μl per spot), followed by two PBS washes. Dog gingiva extracts (3 μl/1.4 mg/ml) were applied to each spot and incubated for 4 hrs. Non-specifically bound proteins were removed by sequentially washing with PBS/0.5% Triton X-100, PBS and 1 mM HEPES, pH 7.2. The chips were air dried and 1 μl of 50% saturated sinapinic acid in 50% (v/v) acetonitrile, 0.5% trifluoroacetic acid was applied onto each spot twice, arrays were air dried between each application. Chips were subsequently analysed by SELDI-TOF MS (Ciphergen Biosystems) using the following settings, laser 220 and sensitivity 9.
c) Generation of H2 RLX Std Curve on PG20 arrays. H2 RLX (batch number 11835-89) was spiked into control dog gingiva (1.4 mg/ml) at different concentrations, including 100 nM, 50 nM, 12.5 nM, 6.25 nM, 3.125 nM and 1.56 nM and analysed as described above.
Findings. In order to quantitate the levels of RLX in the treated gingiva samples a H2 RLX standard curve was generated. The linear dynamic range was determined to be two orders of magnitude with a R^2 value of 0.9495.

[5] = systemic relaxin vs wounds not receiving systemic relaxin
[6] = systemic relaxin, six weeks, blinded assessments

relaxin: Recombinant relaxin identical to the native human hormone H2 relaxin, produced using a recombinant single chain process
blood vessels / redness in the wound site ([1]; after about six weeks of treatment): overall reduction in blood vessels; also recorded: significantly less redness | wound appearance compared to control pig ([1]; after day six, systemic relaxin): healed faster, better | visual wound assessment: share of times a relaxin treatment group was selected in the top three ([1]; blinded neutral observers ranking the best three of six groups of wound pictures): 89% | cosmetic ranking of wound/scar areas, irrigation vs topical only ([1]; dermatologist cosmetic score, weeks 4 and 6, irrigation relaxin treatment vs only topical relaxin treatment): ranked higher overall | adverse effects associated with relaxin treatment (histopathology) ([1]; pig, in vivo): no adverse effects | necrosis or inflammation associated with relaxin treatment ([1]; pig, in vivo): no necrosis or inflammation | scar visibility at wound site ([1]; six weeks of treatment, systemic relaxin vs placebo): the scar is invisible; also recorded: no scar was visible | scarring on histopathological slide ([1]; six weeks, relaxin treatment vs no relaxin treatment (severe scarring)): mild scarring | collagen organization (objective collagen scoring system, redness ratio) [1, 5]: significantly better collagen organization | composite wound healing score (three point scale, collagen appearance) [1, 5]: significantly improved | chronic inflammation in wound sites (histology score) [1, 6]: significantly reduced | granulation tissue in wound sites (histology score) [1, 6]: significantly reduced | wound healing, systemic vs topical administration ([1]; systemic treatment compared to topical administration): better wound healing | wound healing compared to placebo ([1]; topical-only treatment (low and high dose, sections 5 and 6 vs section 4), six weeks): improved wound healing | VEGF and bFGF transcripts at wounded sites [2]: upregulation | new blood vessel formation at wounded sites [2]: increased new blood vessel formation | adverse effects and tolerability over dose range [3]: no relevant adverse effects; also recorded: well-tolerated | RLX detection in gingiva away from the site of injection ([4]; 0.5 cm from site of injection): detected | RLX detection in gingiva away from the site of injection ([4]; 1 cm from site of injection): not detected | RLX detection in gingiva away from the site of injection ([4]; 2 cm from site of injection): not detected | RLX detection in gingiva ([4]; remaining time points (2 and 4 hrs)): only detected at the site of injection | concentration of H2 RLX detected in treated dog gingiva ([4]; 1 hr after gingival injection (25 μg H2 RLX/100 μl)): 90 nM | concentration of H2 RLX detected in treated dog gingiva ([4]; 2 hrs after gingival injection): 78 nM | concentration of H2 RLX detected in treated dog gingiva ([4]; 4 hrs after gingival injection): 21 nM
